# Biological target: T1, androgen receptor (AR) (Homo sapiens, UniProt P10275, T878A)
# T1 construct: endogenous in cells; host or cells: LNCaP
# T1 sequence (P10275 1-920 T878A): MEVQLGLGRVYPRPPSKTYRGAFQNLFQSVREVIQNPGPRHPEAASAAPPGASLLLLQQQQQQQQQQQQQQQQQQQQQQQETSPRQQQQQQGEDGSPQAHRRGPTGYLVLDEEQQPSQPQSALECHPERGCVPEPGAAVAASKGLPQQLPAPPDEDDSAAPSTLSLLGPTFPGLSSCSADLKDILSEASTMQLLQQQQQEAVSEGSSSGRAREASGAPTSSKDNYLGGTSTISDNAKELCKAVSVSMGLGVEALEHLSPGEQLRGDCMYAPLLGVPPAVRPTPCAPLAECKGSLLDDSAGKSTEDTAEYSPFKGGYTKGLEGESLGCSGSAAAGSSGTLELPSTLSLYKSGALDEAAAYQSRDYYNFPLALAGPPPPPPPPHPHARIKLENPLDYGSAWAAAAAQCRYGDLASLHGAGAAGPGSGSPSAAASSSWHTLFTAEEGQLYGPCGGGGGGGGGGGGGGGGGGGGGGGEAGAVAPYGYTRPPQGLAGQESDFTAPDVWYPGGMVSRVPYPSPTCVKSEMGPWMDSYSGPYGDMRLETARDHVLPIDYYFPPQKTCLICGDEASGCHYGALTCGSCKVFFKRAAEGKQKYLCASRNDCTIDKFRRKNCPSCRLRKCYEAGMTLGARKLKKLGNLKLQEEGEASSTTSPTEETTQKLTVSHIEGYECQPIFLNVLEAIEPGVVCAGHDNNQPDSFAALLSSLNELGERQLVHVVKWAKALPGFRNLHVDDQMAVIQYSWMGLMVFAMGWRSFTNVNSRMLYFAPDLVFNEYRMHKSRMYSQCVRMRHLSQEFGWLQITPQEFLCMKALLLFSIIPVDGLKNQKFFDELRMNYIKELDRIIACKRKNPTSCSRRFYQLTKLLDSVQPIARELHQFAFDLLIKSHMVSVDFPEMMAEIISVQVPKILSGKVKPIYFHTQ
# Assay: Specificity Western blot in LNCaP cell lysates, AR
# Format: cell-based
# Settings: 1 or 5 micromolar, 24 hours, presence or absence of DHT
# Procedure: Human prostate cancer LNCaP cells and T47D cells were plated at a density of 7×10^5 cells per 60 millimeter tissue culture dish in […] medium containing 10% FBS. The medium was changed to RPMI or DME medium containing 10% charcoal-stripped serum 24 hours later to deplete cellular androgens or estrogens. After another 24 hours, treatment with the test compounds began. The test dose of ASC-J9 was 1, and 5 and micromolar. LNCap cells also received dihydrotestosterone (DHT) (3 nanomolar). Control cells received a corresponding amount of the vehicle, dimethylsulfoxide (DMSO) (<0.04%) for an equivalent exposure time. Cells were incubated with ASC-J9 for 24 hours, and were lysed in 250 microliters of 1×SDS/PAGE loading buffer. Approximately 40 micrograms of total cellular protein was loaded in each lane of a pre-cast gel (NuPAGE, Invitrogen). Protein separation and transfer were performed following the manufacturer's instructions.
# For the LNCaP cell lysates, androgen receptor (AR) protein was visualized by incubating the resultant membranes with an anti-AR antibody (BD-PharMingen), followed by chemiluminescence detection (ECL Plus, Amersham). […] The resultant protein signals were quantified using densitometry and NIH ImageJ software.
smiles,measurement,value
"COc1ccc(C=CC(=O)C=C(O)C=Cc2ccc(OC)c(OC)c2)cc1OC [ASC-J9, 5-hydroxy-1,7-bis(3,4-dimethoxyphenyl)-1,4,6-heptatrien-3-one]",cellular concentration of AR,significantly decreased

# Source: US9446127B2, “Compositions including androgen receptor degradation (ARD) enhancers and methods of prophylactic or therapeutic treatment of skin disorders and hair loss” (AndroScience Corporation, priority 2007, dated 2016)
